ChEMBL document CHEMBL3045399, “A novel series of homoallylic amines as potential antimicrobials” (2012)
Values after ≈ are worked out from the molar mass of the structure shown. Active and inactive are the calls of the source. The rule behind the calls is not given here.

Assays:
[1] = test system: Pseudomonas aeruginosa; experiment: Antimicrobial activity against Pseudomonas aeruginosa after 16 hr by serial dilution method; format: functional
[2] = test system: Escherichia coli; experiment: Antimicrobial activity against Escherichia coli after 16 hr by serial dilution method; format: functional
[3] = test system: Bacillus subtilis; experiment: Antimicrobial activity against Bacillus subtilis after 16 hr by serial dilution method; format: functional
[4] = test system: Staphylococcus aureus; experiment: Antimicrobial activity against Staphylococcus aureus after 16 hr by serial dilution method; format: functional
[5] = test system: Pseudomonas aeruginosa; experiment: Antimicrobial activity against Pseudomonas aeruginosa at 1.6125 to 50 ug/ml after 16 hr by serial dilution method; format: functional, organism-based
[6] = test system: Escherichia coli; experiment: Antimicrobial activity against Escherichia coli at 1.6125 to 50 ug/ml after 16 hr by serial dilution method; format: functional, organism-based
[7] = test system: Bacillus subtilis; experiment: Antimicrobial activity against Bacillus subtilis at 1.6125 to 50 ug/ml after 16 hr by serial dilution method; format: functional, organism-based
[8] = test system: Staphylococcus aureus; experiment: Antimicrobial activity against Staphylococcus aureus at 1.6125 to 50 ug/ml after 16 hr by serial dilution method; format: functional, organism-based

MIC [1] | MIC [2] | MIC [3] | MIC [4] | Structure (SMILES) | Activity [5] | Activity [6] | Activity [7] | Activity [8]
25 µg/mL (≈ 61.6 µM) | 6.25 µg/mL (≈ 15.4 µM) | 3.12 µg/mL (≈ 7.7 µM) | 3.12 µg/mL (≈ 7.7 µM) | C=CCOc1ccccc1C(CC=C)Nc1ccc(Oc2ccc(Cl)cc2)cc1 (configuration not stated) | – | – | – | –
– | 25 µg/mL (≈ 79.8 µM) | 1.61 µg/mL (≈ 5.15 µM) | 1.61 µg/mL (≈ 5.15 µM) | C=CCC(Nc1cccc2ccccc12)c1cc2ccccc2o1 (configuration not stated) | inactive | – | – | –
3.12 µg/mL (≈ 9.97 µM) | 3.12 µg/mL (≈ 9.97 µM) | 3.12 µg/mL (≈ 9.97 µM) | 1.61 µg/mL (≈ 5.15 µM) | C=CCC(NCc1ccc(F)c(F)c1)c1cc2ccccc2o1 (configuration not stated) | – | – | – | –
3.12 µg/mL (≈ 11 µM) | 3.12 µg/mL (≈ 11 µM) | 3.12 µg/mL (≈ 11 µM) | 3.12 µg/mL (≈ 11 µM) | C=CCC(Nc1ccc(F)cc1)c1cccc(OCC)c1 (configuration not stated) | – | – | – | –
3.12 µg/mL (≈ 6.94 µM) | 3.12 µg/mL (≈ 6.94 µM) | 3.12 µg/mL (≈ 6.94 µM) | 3.12 µg/mL (≈ 6.94 µM) | C=CCC(Nc1ccc(Oc2ccc(Cl)cc2)cc1)c1ccc(-c2ccccc2Cl)o1 (configuration not stated) | – | – | – | –
– | – | – | – | C=CCC(Nc1ccc(C(C)(C)C)cc1)C1CC1 (configuration not stated) | inactive | inactive | inactive | inactive
1.61 µg/mL (≈ 5.17 µM) | 1.61 µg/mL (≈ 5.17 µM) | 1.61 µg/mL (≈ 5.17 µM) | 3.12 µg/mL (≈ 10 µM) | C=CCC(Nc1ccc(Cl)cc1F)c1c(F)cccc1F (configuration not stated) | – | – | – | –
1.61 µg/mL (≈ 5.46 µM) | 1.61 µg/mL (≈ 5.46 µM) | 1.61 µg/mL (≈ 5.46 µM) | 1.61 µg/mL (≈ 5.46 µM) | C=CCC(Nc1ccc(F)cc1F)c1ccc(F)cc1F (configuration not stated) | – | – | – | –
6.25 µg/mL (≈ 24.6 µM) | 3.12 µg/mL (≈ 12.3 µM) | 6.25 µg/mL (≈ 24.6 µM) | 6.25 µg/mL (≈ 24.6 µM) | C=CCC(Nc1ccc(C#N)cc1)c1ccsc1 (configuration not stated) | – | – | – | –
1.61 µg/mL (≈ 5.15 µM) | 1.61 µg/mL (≈ 5.15 µM) | 1.61 µg/mL (≈ 5.15 µM) | 1.61 µg/mL (≈ 5.15 µM) | C=CCC(Nc1cc(F)c(F)cc1F)c1ccc(F)cc1F (configuration not stated) | – | – | – | –
25 µg/mL (≈ 79.5 µM) | 6.25 µg/mL (≈ 19.9 µM) | 6.25 µg/mL (≈ 19.9 µM) | 6.25 µg/mL (≈ 19.9 µM) | C=CCC(Nc1ccc(N2CCOCC2)cc1)C1CCCCC1 (configuration not stated) | – | – | – | –
3.12 µg/mL (≈ 9.91 µM) | 3.12 µg/mL (≈ 9.91 µM) | 3.12 µg/mL (≈ 9.91 µM) | 3.12 µg/mL (≈ 9.91 µM) | C=CCC(Nc1ccc(C(C)(C)C)cc1)c1ccc(F)cc1F (configuration not stated) | – | – | – | –
– | – | 1.61 µg/mL (≈ 5.9 µM) | 1.61 µg/mL (≈ 5.9 µM) | C=CCC(Nc1ccc(F)c(C(F)(F)F)c1)C1CC1 (configuration not stated) | inactive | inactive | – | –
12.5 µg/mL (≈ 48.6 µM) | 12.5 µg/mL (≈ 48.6 µM) | 12.5 µg/mL (≈ 48.6 µM) | 6.25 µg/mL (≈ 24.3 µM) | C=CCC(Nc1cc(C)ccc1C)C1CCCCC1 (configuration not stated) | – | – | – | –
1.61 µg/mL (≈ 5.58 µM) | 1.61 µg/mL (≈ 5.58 µM) | 1.61 µg/mL (≈ 5.58 µM) | 1.61 µg/mL (≈ 5.58 µM) | C=CCC(Nc1cccc(F)c1)c1cc(OC)ccc1F (configuration not stated) | – | – | – | –
25 µg/mL (≈ 91.4 µM) | 25 µg/mL (≈ 91.4 µM) | 25 µg/mL (≈ 91.4 µM) | 25 µg/mL (≈ 91.4 µM) | C=CCC(Nc1cccc2ccccc12)c1ccccc1 (configuration not stated) | – | – | – | –
12.5 µg/mL (≈ 34.6 µM) | 12.5 µg/mL (≈ 34.6 µM) | 12.5 µg/mL (≈ 34.6 µM) | 12.5 µg/mL (≈ 34.6 µM) | C=CCC(Nc1cccc2ncsc12)c1cn(C(C)=O)c2ccccc12 (configuration not stated) | – | – | – | –

Structure (SMILES) | MIC [1] | MIC [2] | MIC [3] | MIC [4] | Activity [5] | Activity [6] | Activity [7] | Activity [8]
CO/N=C(\C(=O)N[C@@H]1C(=O)N2C(C(=O)O)=C(CSc3nc(=O)c(O)nn3C)CS[C@H]12)c1csc(N)n1 [CEFTRIAXONE] | 1.61 µg/mL (≈ 2.91 µM) | 1.61 µg/mL (≈ 2.91 µM) | 1.61 µg/mL (≈ 2.91 µM) | 3.12 µg/mL (≈ 5.63 µM) | – | – | – | –
